Consider 91 compounds from PubChem BioAssay AID463074 (Broad Institute, 2010).

As usually defined, the AC50 is the concentration giving half of the maximal activity seen.

Calls of active or inactive are those of the source.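 The calls were made as follows: active = AC50 no more than tenfold above the top dose tested, or full inhibition at every dose with a flat fit (cut at about 19 µM in these data); inconclusive = flat curve fit with inhibition between 30% and 70%, or poor fit; inactive = AC50 more than tenfold above the top dose tested.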 Some results are limits rather than exact numbers.

For the test, the system named is HMLE_sh_eGFP viability, CellTiter-Glo luminescence, 72 h. Description: cytotoxicity in HMLE control line with eGFP shRNA, dose response, counter-screen for HMLE_sh_ECad selective toxicity project, cell-based, HMLE_sh_eGFP, luminescence (AID 463074).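 Also: potency for loss of viability as luminescence drops below DMSO wells.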 On the technique in general: Counterscreens check selectivity or assay interference.
For `O=C(Nc1ccc(S(=O)(=O)N2CCOCC2)cc1)c1cc(-c2cc(Cl)ccc2O)n[nH]1`, the AC50 was 2.18 µM.
As for `C[C@@H]1O[C@@H](O[C@@H]2C=C3CCC4C(CC[C@]5(C)[C@@H](c6ccc(=O)oc6)CC[C@]45O)[C@@]3(C)CC2)[C@H](O)[C@H](O)[C@H]1O` (stereo partly specified), the figure is less than 0.16 µM; as for `Cc1ccc(-n2nnnc2SC(C(=O)c2c[nH]c3ccccc23)c2ccccc2)cc1` (stereo unspecified), 3.21 µM.
The figure for `NC(=O)CC(NC(=O)Cc1cccc2ccccc12)c1ccc(NCc2ccc(F)c(F)c2)c([N+](=O)[O-])c1` (stereo unspecified) is 10.7 µM.
On to `Cc1ccc2c(c1)c1ncn(CCC3=CCCCC3)c(=O)c1n2C`, for which the AC50 was 1.09 µM.
Take `O=[N+]([O-])c1cccc(-c2csc(Nc3ccccc3)n2)c1`: the AC50 was 3.88 µM.
As for `O=C(O)c1ccc(C=C(c2nc3ccccc3s2)c2nc3ccccc3s2)cc1`, the figure is 5.12 µM; as for `Cc1cc(NC(=O)c2cc(-c3ccncc3)nc3ccccc23)ccc1Br`, 6.77 µM.
Consider `COc1cc2c(cc1OC)C(c1ccc(-c3ccc(Cl)c(Cl)c3)o1)=NCC2`, for which the AC50 is 3.99 µM.
Regarding `CS(=O)(=O)Nc1ccccc1C(=O)Nc1cccc(Cl)c1`, the AC50 was > 19.5 µM (inactive).
For `CC(C)CCNc1nc(-c2ccco2)c2c(c1C#N)CCCC2`, the AC50 is 11.3 µM.
For the compound `COc1cc(NC(=O)Nc2cccc(Cl)c2)c(OC)cc1NC(=O)CN1CCCCC1`, the AC50 is 4.3 µM.
The figure for `Cc1cccc(N/N=C(\C(N)=O)C2=NC(C)(C)Cc3ccccc32)c1` is 10.9 µM; for `C[C@H]1[C@H](C)CC[C@]2(C)CC[C@]3(C)C(=CC(=O)C4[C@@]5(C)CC[C@H](O)C(C)(C)C5CC[C@]43C)[C@H]12` (stereo partly specified) it is 3.67 µM.
As for `O=[N+]([O-])c1ccc(Cl)c([N+](=O)[O-])c1`, the figure is 5.62 µM; as for `O=C(/C=C/c1ccccc1)NNc1ccc(Cl)cc1`, 12 µM.
The figure for `CC1(C)C=C2[C@H]3CC[C@@H]4[C@@]5(C)CCC(=O)C(C)(C)[C@@H]5CC[C@@]4(C)[C@]3(C)CC[C@@]2(C(=O)O)CC1` is 3.58 µM; for `CCc1c(C2(O)CCCCC2)[nH]c2cc(C(F)(F)F)ccc12` it is 3.15 µM; for `OCCCCC#Cc1c(-c2ccsc2)sc2ccccc12` it is 5.56 µM.
Turning to `CCCCn1c(SCC(N)=O)nc2sc3c(c2c1=O)CCC3`, the AC50 is > 19.5 µM (inactive).
The figure for `Cc1ccc(C)c(NC(=O)/C(C#N)=C/c2cn(CC(=O)NCc3ccco3)c3ccccc23)c1` is > 19.5 µM (inactive).
Regarding `N#C/C(=C/c1cn(-c2ccccc2)nc1-c1cccc(OCc2ccccc2)c1)C(=O)NCCCn1ccnc1`, the AC50 was 6.25 µM.
As for `COc1ccc(-n2nc3c(N4CCC(C(=O)NCCc5ccccc5C)CC4)nnc(C)c3c2C)cc1`, the figure is 4.85 µM.
The figure for `COc1ccc(CNC(=O)c2c(N)n(CCCN3CCOCC3)c3nc4ccccc4nc23)cc1` is 6.67 µM; for `CCOc1ccccc1CNc1ncnc2ccc(-c3c(C)noc3C)cc12` it is 6.05 µM; for `CN(CC(=O)Nc1ccc(Cl)c(Cl)c1)CC(=O)Nc1ccc2c(c1)OCO2` it is 17.2 µM.
On to `C/C(CC(=O)Nc1ccc(Cl)c(C(F)(F)F)c1)=N\NC(=O)c1cc2ccccc2cc1O`, for which the concentration at half-maximal activity (AC50) was 13.3 µM.
As for `COc1cc(NC(=O)c2cc3ccccc3cc2O)c(OC)cc1Cl`, the figure is 1.17 µM; as for `COC(=O)c1c(-c2ccc(N(C)C)cc2)sc2ccc(OC)cc12`, > 19.5 µM (inactive).
The figure for `Cc1ccc(-c2nc(C(Cl)Cl)c3ccccc3n2)cc1` is 1.33 µM; for `COc1ccc(-c2[nH]ncc2N=Nc2ccccc2)cc1` it is 7.66 µM; for `C=C[C@@H]1c2cccc(C)c2N(S(=O)(=O)c2ccc(C)cc2)[C@H](c2ccc(OC(C)=O)cc2)C1(C#N)C#N` it is 6.71 µM.
The figure for `CCn1cc([N+](=O)[O-])c(C(=O)Nc2nc(-c3ccc(C)cc3)c(C)s2)n1` is 5.54 µM; for `CCCc1[nH]c2ccc(C#N)cc2c1CCC` it is 4.14 µM; for `Clc1cccc(Nc2nc(-c3ccncc3)cs2)c1` it is 5.03 µM.
With `CCCC(=O)NC(c1ccco1)c1cc([N+](=O)[O-])c2cccnc2c1O` (stereo unspecified), the AC50 was 7.35 µM.
As for `CC(C)(C)c1nn(-c2ccccc2)c2[nH]c(=O)c(C=O)cc12`, the figure is 8.18 µM; as for `CCC(C)n1ncn(-c2ccc(N3CCN(c4ccc(O)cc4)CC3)cc2)c1=O` (stereo unspecified), 1.47 µM; as for `COc1ccc(OC)c(NC(=O)c2nnn(Cc3ccccc3C)c2N)c1`, 3.61 µM.
The figure for `Cc1ncc(CN2CCCC(C(=O)Nc3ccc(-c4cccc(F)c4)cc3)C2)s1` (stereo unspecified) is 11.7 µM.
As for `CCc1ccc(-c2cc(C(=O)N3N=C(C(F)F)CC3(O)C(F)F)c3ccccc3n2)cc1` (stereo unspecified), the AC50 was 6.4 µM.
As for `O=C(CSc1nnc(-c2ccccc2O)n1Cc1ccccc1)NNC(=O)c1ccccc1O`, the figure is 3.22 µM; as for `CC1(C)C[C@H](O)[C@]2(CO)[C@H](O)C[C@]3(C)C(=CCC4[C@@]5(C)CC[C@H](O)C(C)(C)C5CC[C@]43C)[C@@H]2C1` (stereo partly specified), 3.63 µM; as for `CCOc1ccc2nc(NC3=NC(c4ccc(OC)cc4)CC(=O)N3)nc(C)c2c1` (stereo unspecified), 7.28 µM.
As for `Cc1ccc(-c2nc(Nc3cccc(O)c3)c3ccccc3n2)cc1`, the figure is 7.23 µM; as for `NC(=O)CC(NC(=O)Cc1cccc2ccccc12)c1ccc(NC2CCCCCCC2)c([N+](=O)[O-])c1` (stereo unspecified), 12 µM; as for `NC(=O)c1cc([N+](=O)[O-])ccc1NCc1ccc(O)cc1`, 3.1 µM.
As for `O=C(/C(=C/O)N=Nc1ccc(Cl)cc1)c1ccncc1`, the figure is 6.53 µM.
With `Cc1sc2ncnc(N3CCC(C(=O)N(C)CC(=O)Nc4ccc(Cl)c(C(F)(F)F)c4)CC3)c2c1C`, the half-maximal activity concentration (AC50) was 3.93 µM.
With `CC(C)[C@@H]1CC[C@@H](C)c2c(-c3ccccc3)n[nH]c21`, the AC50 was 6.38 µM.
The figure for `O=C(/C=C/c1c(F)cccc1Cl)c1ccc(O)cc1` is 7.97 µM; for `CC(C)=CCCC1(C)C=Cc2c(ccc3c2[nH]c2cc(O)c(C)cc23)O1` (stereo unspecified) it is 3.58 µM; for `COc1cc(-c2ccc3c(=O)c4ccccc4n(C)c3c2)cc(OC)c1OC` it is 8.21 µM.
As for `CCN(c1ccccc1)c1nc(C#N)nc(N(CC)c2ccccc2)n1`, the figure is 7.07 µM.
As for `O=C(/C=C/c1ccccc1[N+](=O)[O-])c1ccccc1Br`, the figure is 3.64 µM; as for `COc1ccc2sc(-c3ccc(N(C)C)cc3)c(-c3ccc4cc[nH]c4c3)c2c1`, 16.5 µM; as for `Cc1c(C(=O)N(Cc2ccccc2)Cc2cccs2)cnn1-c1ccc(Cl)cc1`, 1.42 µM.
For the compound `O=C(N/N=C/c1ccc2c(c1)OCO2)c1ccc(COCC(F)(F)C(F)F)cc1`, the AC50 was 1.64 µM.
For `COc1ccc(C2c3ccc4ccccc4c3Oc3ncn(Cc4ccco4)c(=N)c32)cc1OC` (stereo unspecified), the AC50 is 7.58 µM.
The figure for `O=Nc1c(O)n(Cc2ccc(Cl)cc2Cl)c2ccccc12` is 7.05 µM.
The figure for `O=C(Nc1ccc(-c2csc(Nc3cccc(C(F)(F)F)c3)n2)cc1)c1ccccc1` is 1.96 µM; for `O=C(NCc1nc(-c2ccc(C(F)(F)F)cc2)no1)Nc1cc(Cl)cc(Cl)c1` it is 2.46 µM.
As for `COc1ccc(C)cc1NS(=O)(=O)c1ccc(NC(=O)CN(c2cc([N+](=O)[O-])ccc2C)S(C)(=O)=O)cc1`, the figure is 3.8 µM; as for `COc1ccc(C)cc1Nc1n[n+](-c2ccccc2)c(-c2c(OC)ccc3ccccc23)s1`, 6.93 µM.
Take `O=[N+]([O-])c1cccc(C2NCC(c3ccccc3Cl)c3c2[nH]c2ccccc32)c1` (stereo unspecified): the concentration at half-maximal activity (AC50) is 6.75 µM.
As for `Cc1ccc(C(=O)N/C(=C\c2ccc(-c3ccc(Br)cc3)o2)C(=O)NCCCN(C)C)cc1`, the figure is 4.38 µM; as for `CC(C)c1ccc(-c2cc(C(=O)N3N=C(C(F)F)CC3(O)C(F)F)c3ccccc3n2)cc1` (stereo unspecified), 6.3 µM.
Take `OCCNc1nc(Nc2ccc(Cl)c(Cl)c2)nc2ccccc12`: the AC50 was 6.96 µM.
The figure for `Cc1cc([N+](=O)[O-])nn1Cc1ccc(C(=O)N/N=C/c2ccc(O)cc2O)cc1` is 2.25 µM; for `C1=C(c2sc3ccccc3c2-c2ccc(OCCN3CCOCC3)cc2)CCCC1` it is 1.94 µM; for `CCCCCCSc1ccc(-c2nc3ccccn3c2NCCCC)cc1` it is 6.98 µM.
Regarding `CC(C)(C)c1ccc(C(=O)NCCCN2CCN(CCCNC(=O)c3ccc(C(C)(C)C)cc3)CC2)cc1`, the AC50 was 3.25 µM.
The figure for `COc1ccc(Br)cc1C(C[N+](=O)[O-])c1c(N)n(C)c(=O)n(C)c1=O` (stereo unspecified) is 4.93 µM.
As for `CCC1(C)Cc2c(sc3nc(SC)n(Cc4ccccc4)c(=O)c23)CO1` (stereo unspecified), the figure is 2.77 µM.
As for `COc1ccc(Cn2nnnc2C(C(C)C)N(Cc2ccco2)Cc2cccs2)cc1` (stereo unspecified), the AC50 is > 19.5 µM (inactive).
`Cc1cccc(CNc2ccc(C(CC(N)=O)NC(=O)Cc3cccc4ccccc34)cc2[N+](=O)[O-])c1` (stereo unspecified): the AC50 is 13.7 µM.
The figure for `CCCCCCOc1ccc(OC(=O)c2cccnc2)cc1` is 10.1 µM; for `CC(C)=CCCC1(C)C=Cc2c(c(C)cc3c2[nH]c2cc(O)ccc23)O1` (stereo unspecified) it is 6.29 µM.
`CC(C)Cc1nc2oc3c(Cl)ncnc3c2c2c1CCC2`: the AC50 was 3.72 µM.
As for `COc1ccc(/C=C/C(=O)c2ccc(O)cc2)cc1COc1ccc(F)cc1`, the figure is 4.37 µM; as for `O=C(Cc1ccc(F)cc1)Nc1nnc(SCC(=O)N2CCCCC2)s1`, > 19.5 µM (inactive).
In the case of `Cn1cccc1/C=C1/C(=O)NC(=S)N(Cc2ccc(F)cc2)C1=O`, the AC50 was 1.7 µM.
For `O=C(Nc1ccon1)c1nc[nH]c1C(=O)NCc1ccccc1`, the AC50 is 1.77 µM.
The figure for `O=C(O)c1ccccc1C(=O)NNc1ccc(Cl)cc1` is 3.95 µM.
The figure for `O=C(NCCC1=CCCCC1)c1coc(=O)c(Br)c1` is 11.7 µM.
The figure for `COc1ccc(C(=O)Nc2ccc(OCC(F)(F)C(F)F)c(C(F)(F)F)c2)cc1OC` is 5.48 µM.
For the compound `CCNC(=S)N/N=C/c1cn(Cc2ccc(F)cc2)c2ccccc12`, the AC50 is 10.9 µM.
For `O=c1c2c3c(sc2ncn1/N=C/c1ccc([N+](=O)[O-])o1)CCCC3`, the AC50 is 6.48 µM.
As for `CC(=O)Nc1ccc(OCC(O)CN2CCN(c3cc(Cl)ccc3C)CC2)cc1` (stereo unspecified), the figure is 5.17 µM; as for `CC1=C(C(=O)OC2CCCCC2)C(c2ccc(C)o2)C2=C(CC(C)(C)CC2=O)N1` (stereo unspecified), 12.9 µM; as for `Cc1ccc(N/N=C/c2ccncc2)cc1`, 7.44 µM.
